± gives the uncertainty stated by the source.
Assay: xn = mol fraction of the nth substance listed

Brc1ccccc1 + CN(C)C=O
viscosity [mPa·s], 101.33 kPa
Details | x2 = 0.0879 | x2 = 0.2075 | x2 = 0.3085 | x2 = 0.4055 | x2 = 0.5063 | x2 = 0.6027 | x2 = 0.6877 | x2 = 0.8054 | x2 = 0.9001 | x2 = 0.9002
303.15 K | 0.982 ± 0.007 | 0.973 ± 0.007 | 0.963 ± 0.007 | 0.949 ± 0.007 | 0.931 ± 0.007 | 0.905 ± 0.007 | 0.879 ± 0.007 | 0.831 ± 0.006 | – | 0.789 ± 0.006
313.15 K | 0.889 ± 0.007 | 0.879 ± 0.007 | 0.87 ± 0.007 | 0.854 ± 0.006 | 0.838 ± 0.006 | 0.816 ± 0.006 | 0.792 ± 0.006 | 0.749 ± 0.006 | 0.711 ± 0.005 | –

COc1ccccc1O + CN(C)c1ccccc1
303.15 K, 101 kPa
Details | viscosity [mPa·s]
x2 = 0.1 | 3.71 ± 0.1
x2 = 0.2 | 3.21 ± 0.09
x2 = 0.3 | 2.84 ± 0.08
x2 = 0.4 | 2.46 ± 0.07
x2 = 0.5 | 2.16 ± 0.06
x2 = 0.6 | 1.89 ± 0.05
x2 = 0.7 | 1.65 ± 0.04
x2 = 0.8 | 1.46 ± 0.04
x2 = 0.9 | 1.31 ± 0.03

O=C1CCCCO1 + CNC(C)=O
viscosity [mPa·s], 101 kPa
Details | x2 = 0.0818 | x2 = 0.2377 | x2 = 0.3396 | x2 = 0.4641 | x2 = 0.5194 | x2 = 0.717 | x2 = 0.7962 | x2 = 0.8929 | x2 = 0.9596
303.15 K | 2.648 ± 0.18 | 2.494 ± 0.17 | 2.393 ± 0.16 | 2.352 ± 0.16 | 2.389 ± 0.16 | 2.607 ± 0.18 | 2.782 ± 0.19 | 3.108 ± 0.21 | 3.512 ± 0.23
308.15 K | 2.412 ± 0.16 | 2.288 ± 0.16 | 2.199 ± 0.15 | 2.203 ± 0.15 | 2.222 ± 0.15 | 2.422 ± 0.17 | 2.583 ± 0.18 | 2.896 ± 0.2 | 3.125 ± 0.21
313.15 K | 2.204 ± 0.15 | 2.101 ± 0.14 | 2.06 ± 0.14 | 2.021 ± 0.14 | 2.023 ± 0.14 | 2.165 ± 0.15 | 2.304 ± 0.16 | 2.559 ± 0.17 | 2.765 ± 0.19
318.15 K | 2.02 ± 0.14 | 1.916 ± 0.13 | 1.862 ± 0.13 | 1.843 ± 0.13 | 1.862 ± 0.13 | 1.994 ± 0.14 | 2.111 ± 0.15 | 2.3 ± 0.16 | 2.491 ± 0.17

COc1ccccc1O + CNc1ccccc1
303.15 K, 101 kPa
Details | viscosity [mPa·s]
x2 = 0.1 | 4 ± 0.11
x2 = 0.2 | 3.72 ± 0.1
x2 = 0.3 | 3.36 ± 0.09
x2 = 0.4 | 3.03 ± 0.08
x2 = 0.5 | 2.76 ± 0.07
x2 = 0.6 | 2.44 ± 0.06
x2 = 0.7 | 2.22 ± 0.06
x2 = 0.8 | 1.99 ± 0.05
x2 = 0.9 | 1.72 ± 0.05

C1COCCO1 + CO
Details | viscosity [mPa·s]
293.15 K, 101 kPa, x2 = 0.2465 | 0.9992 ± 0.0096
293.15 K, 101 kPa, x2 = 0.3957 | 0.8686 ± 0.0083
293.15 K, 101 kPa, x2 = 0.5458 | 0.7639 ± 0.0072
293.15 K, 101 kPa, x2 = 0.6558 | 0.6972 ± 0.0066
293.15 K, 101 kPa, x2 = 0.7331 | 0.6579 ± 0.0061
293.15 K, 101 kPa, x2 = 0.8062 | 0.6268 ± 0.0058
293.15 K, 101 kPa, x2 = 0.8648 | 0.6069 ± 0.0056
293.15 K, 101 kPa, x2 = 0.9198 | 0.5935 ± 0.0054
293.15 K, 101 kPa, x2 = 0.9635 | 0.5877 ± 0.0054
293.15 K, 101.3 kPa, x2 = 0.1975 | 1.045 ± 0.014
293.15 K, 101.3 kPa, x2 = 0.3447 | 0.9049 ± 0.012
293.15 K, 101.3 kPa, x2 = 0.4743 | 0.8065 ± 0.011
293.15 K, 101.3 kPa, x2 = 0.5836 | 0.7327 ± 0.0099
293.15 K, 101.3 kPa, x2 = 0.6782 | 0.6805 ± 0.0092
293.15 K, 101.3 kPa, x2 = 0.7588 | 0.6441 ± 0.0088
293.15 K, 101.3 kPa, x2 = 0.8312 | 0.6135 ± 0.0084
293.15 K, 101.3 kPa, x2 = 0.8936 | 0.5998 ± 0.0083
293.15 K, 101.3 kPa, x2 = 0.9503 | 0.59 ± 0.0081
298.15 K, 101 kPa, x1 = 0.3 | 0.6148 ± 0.016
298.15 K, 101 kPa, x2 = 0.8474 | 0.5684 ± 0.0052
298.15 K, 101 kPa, x2 = 0.9275 | 0.5488 ± 0.0051
298.15 K, 101 kPa, x2 = 0.9636 | 0.5589 ± 0.0052
298.15 K, 101.3 kPa, x2 = 0.1975 | 0.9612 ± 0.013
298.15 K, 101.3 kPa, x2 = 0.3447 | 0.8454 ± 0.011
298.15 K, 101.3 kPa, x2 = 0.4743 | 0.7506 ± 0.01
298.15 K, 101.3 kPa, x2 = 0.5836 | 0.6825 ± 0.0093
298.15 K, 101.3 kPa, x2 = 0.6782 | 0.6352 ± 0.0087
298.15 K, 101.3 kPa, x2 = 0.7588 | 0.6047 ± 0.0084
298.15 K, 101.3 kPa, x2 = 0.8312 | 0.578 ± 0.008
298.15 K, 101.3 kPa, x2 = 0.9503 | 0.5443 ± 0.0076
303.15 K, 101 kPa, x2 = 0.2218 | 0.8759 ± 0.0086
303.15 K, 101 kPa, x2 = 0.4075 | 0.7425 ± 0.0072
303.15 K, 101 kPa, x2 = 0.5478 | 0.6573 ± 0.0063
303.15 K, 101 kPa, x2 = 0.6544 | 0.6056 ± 0.0058
303.15 K, 101 kPa, x2 = 0.7387 | 0.5694 ± 0.0054
303.15 K, 101 kPa, x2 = 0.8089 | 0.5455 ± 0.0051
303.15 K, 101 kPa, x2 = 0.8164 | 0.5434 ± 0.0051
303.15 K, 101 kPa, x2 = 0.8671 | 0.5288 ± 0.005
303.15 K, 101 kPa, x2 = 0.9617 | 0.5105 ± 0.0048
303.15 K, 101.3 kPa, x2 = 0.1975 | 0.8931 ± 0.012
303.15 K, 101.3 kPa, x2 = 0.3447 | 0.778 ± 0.011
303.15 K, 101.3 kPa, x2 = 0.4743 | 0.6981 ± 0.0096
303.15 K, 101.3 kPa, x2 = 0.5836 | 0.6349 ± 0.0088
303.15 K, 101.3 kPa, x2 = 0.6782 | 0.5919 ± 0.0082
303.15 K, 101.3 kPa, x2 = 0.7588 | 0.5568 ± 0.0078
303.15 K, 101.3 kPa, x2 = 0.8312 | 0.5316 ± 0.0075
303.15 K, 101.3 kPa, x2 = 0.8936 | 0.5157 ± 0.0073
303.15 K, 101.3 kPa, x2 = 0.9503 | 0.5063 ± 0.0072
303.15 K, 101.33 kPa, x2 = 0.225 | 0.877 ± 0.18
303.15 K, 101.33 kPa, x2 = 0.4115 | 0.733 ± 0.15
303.15 K, 101.33 kPa, x2 = 0.662 | 0.603 ± 0.12
303.15 K, 101.33 kPa, x2 = 0.923 | 0.52 ± 0.11
308.15 K, 101.3 kPa, x2 = 0.1975 | 0.831 ± 0.011
308.15 K, 101.3 kPa, x2 = 0.3447 | 0.7262 ± 0.0099
308.15 K, 101.3 kPa, x2 = 0.4743 | 0.6503 ± 0.009
308.15 K, 101.3 kPa, x2 = 0.5836 | 0.593 ± 0.0083
308.15 K, 101.3 kPa, x2 = 0.6782 | 0.5507 ± 0.0078
308.15 K, 101.3 kPa, x2 = 0.7588 | 0.52 ± 0.0074
308.15 K, 101.3 kPa, x2 = 0.8312 | 0.497 ± 0.0071
308.15 K, 101.3 kPa, x2 = 0.9503 | 0.4725 ± 0.0068
313.15 K, 101 kPa, x2 = 0.2218 | 0.7572 ± 0.0075
313.15 K, 101 kPa, x2 = 0.2465 | 0.7401 ± 0.0073
313.15 K, 101 kPa, x2 = 0.4075 | 0.6436 ± 0.0063
313.15 K, 101 kPa, x2 = 0.5458 | 0.5763 ± 0.0056
313.15 K, 101 kPa, x2 = 0.6544 | 0.5294 ± 0.0051
313.15 K, 101 kPa, x2 = 0.7387 | 0.499 ± 0.0048
313.15 K, 101 kPa, x2 = 0.8089 | 0.4782 ± 0.0046
313.15 K, 101 kPa, x2 = 0.8671 | 0.4627 ± 0.0044
313.15 K, 101 kPa, x2 = 0.9635 | 0.446 ± 0.0043
323.15 K, 101 kPa, x2 = 0.2465 | 0.6508 ± 0.0064
323.15 K, 101 kPa, x2 = 0.3957 | 0.5742 ± 0.0057
323.15 K, 101 kPa, x2 = 0.5458 | 0.5093 ± 0.005
323.15 K, 101 kPa, x2 = 0.6558 | 0.4701 ± 0.0046
323.15 K, 101 kPa, x2 = 0.7331 | 0.4449 ± 0.0044
323.15 K, 101 kPa, x2 = 0.8062 | 0.4249 ± 0.0042
323.15 K, 101 kPa, x2 = 0.8648 | 0.4107 ± 0.004
323.15 K, 101 kPa, x2 = 0.9198 | 0.4003 ± 0.0039
323.15 K, 101 kPa, x2 = 0.9635 | 0.3949 ± 0.0039
